Measured values reported in paper PMC8857470, “Molecular insights into the maturation of phosphodiesterase 6 by the specialized chaperone complex of HSP90 with AIPL1” (The Journal of Biological Chemistry, 2022).

Biological target: T1, AIPL1 (full-length mouse AIPL1) (Mus musculus, UniProt Q924K1)
T1 construct: full-length (aa 1-328), His6-tagged from pET15b, expressed in E. coli BL21(DE3), purified by Ni-NTA, Mono Q and SEC; prenyl site in the FKBP domain
T1 sequence (Q924K1 1-328): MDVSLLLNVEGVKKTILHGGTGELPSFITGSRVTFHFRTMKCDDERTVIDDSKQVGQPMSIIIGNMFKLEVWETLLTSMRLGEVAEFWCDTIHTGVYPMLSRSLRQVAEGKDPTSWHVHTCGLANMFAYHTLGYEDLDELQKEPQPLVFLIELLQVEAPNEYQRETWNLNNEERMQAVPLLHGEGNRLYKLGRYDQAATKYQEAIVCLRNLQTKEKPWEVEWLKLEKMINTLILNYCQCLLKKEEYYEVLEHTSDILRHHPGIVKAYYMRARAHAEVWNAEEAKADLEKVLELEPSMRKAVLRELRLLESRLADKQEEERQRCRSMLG
Assay: fluorescence titration, ex […] nm, em […] nm, fit with ligand depletion
Assay type: binding

Kd: 700 ± 100 nM
SMILES: CC(C)=CCC/C(C)=C/CC/C(C)=C/CSC[C@H](NC(=O)CCCCCNC(=O)Cc1c(C)c2ccc(N)cc2oc1=O)C(=O)O [farnesyl-Cys-AMCA]
